The values below come from patent US20240408071A1, “NOVEL COMBINATION OF SEROTONIN RECEPTOR (5-HTR2B) ANTAGONIST AND AN IMMUNOMODULATOR AND CHEMOTHERAPEUTIC DRUGS FOR INHIBITION OF CANCER” (NATIONAL CENTRE FOR CELL SCIENCE, priority 2021, published 2024).

This assay has as its system OT-II CD4 T cells. The assay is described as follows: OT-II peptide-specific proliferation of CFSE-tagged OT-II CD4 T cells in vitro. It counts as cell-based, mouse. The settings on record: BW-723C86 10 μM, OT-II peptide (Ova323-339), 5 days (FIG. 12A-B). As for the experimental part:
FIG. 12 depicts that 5-HTR2B signalling affects the antigen-specific proliferation of CD4 T cells: (A-B) Total CD4 T cells were harvested from the lymph node of OT-II mice and they were tagged with CFSE and cultured in vitro in the presence or absence of OT-II peptide (Ova323-339), IL-2, 5-HTR2B agonist BW-723C86 (10 μM), Serotonin (20 μM) or 5-HTR2B antagonist RS-127445 (15 μM) for 5 days. After 5 days the proliferation of OT-II tetramer^+ CD4 T cells was measured and plotted as histogram overlay (A) or as statistical data (B). (C-D) Flow cytometric data and statistical analysis of the percentage of intra-tumoral OT-II-tetramer^+ IFNγ^+ CD4 T cell population from the control and RS-127445 treated MC38-ova tumor-bearing mice. (E-F) Flow cytometric data and statistical analysis of the percentage of intra-tumoral OT-II-tetramer^+ IFNγ^+ CD4 T cell population from the control and RS-127445 treated MC38-ova tumor-bearing mice. […]
A simple adoptive transfer experiment was performed to study the enhancement of CTL response in general or antigen-specific. […] The CFSE-tagged total lymph node cells from […] were cultured in the presence or absence of OT-II peptide (Ova323-339) 5-HTR2B agonist (BW-723C86), serotonin, and 5-HTR2B antagonist (RS-127445) as indicated in the figure for 5 days and the proliferation was measured (FIG. 12A-B). […]

Regarding `CC(N)Cc1c[nH]c2ccc(OCc3cccs3)cc12` (stereo not shown) [BW-723C86], the “OT-II peptide-specific proliferation of OT-II CD4 T cells” value was “significantly reduced”.
